This note sets out measurements from patent US20240246946A1, “MODULATORS OF TREX1” (Constellation Pharmaceuticals, Inc., priority 2021, published 2024).

pIC50, pKd: −log10 of the molar value.

The target of one assay is T1, hTREX1 (Homo sapiens, UniProt Q9NSU2).
T1 construct: host or cells: HCT116 dual cells
T1 sequence (Q9NSU2 1-314): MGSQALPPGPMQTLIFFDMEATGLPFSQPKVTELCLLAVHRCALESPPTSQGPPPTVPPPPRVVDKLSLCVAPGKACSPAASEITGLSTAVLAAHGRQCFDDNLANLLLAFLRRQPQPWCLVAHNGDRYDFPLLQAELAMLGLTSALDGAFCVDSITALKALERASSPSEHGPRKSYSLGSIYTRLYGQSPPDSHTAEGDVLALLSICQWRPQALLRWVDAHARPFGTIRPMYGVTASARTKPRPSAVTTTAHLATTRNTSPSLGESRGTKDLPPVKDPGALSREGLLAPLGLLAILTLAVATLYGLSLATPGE
The assay is described as follows: hTREX1 HCT116 Cell Assay (HCT116 dual cells, Lucia luciferase reporter of Type I interferon induction). In kind it is cell-based. Particulars: TREX1i 4 h before pBR322/BstNI transfection, read after 48 h. The method in brief: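 Type I interferon induction read as secreted Lucia luciferase 48 h after transfecting pBR322/BstNI digest (1 ug/mL, 100 ng/well) into HCT116 dual reporter cells. Compound added 4 h before transfection at up to 0.1% DMSO; cells in DMEM/10% FBS/25 mM HEPES at 37 °C.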
In general terms: Reporter assays use an easily measured gene product as a stand-in for the process of interest.

A further assay addresses T2, full length human TREX1 (Homo sapiens, UniProt Q9NSU2).
T2 construct: N-terminally His-Tev tagged full length human TREX1; made in house; host or cells: E. coli
T2 sequence (Q9NSU2 1-314): T1 sequence (Q9NSU2 1-314)
The assay is described as follows: TREX1 Kinetics Assays (TR-FRET association and dissociation, global fit with Kintek Explorer). In kind it is binding. Particulars: for residence time / pKd: hTREX1, TR-FRET kinetics; for koff / kon: hTREX1, TR-FRET, 25° C., global fit. The protocol: Compound binding kinetics were assessed using a pair of TR-FRET assays which measure the proportion of protein bound to a biotinylated TREX1 inhibitor (“probe”).
N-terminally His-Tev tagged full length human TREX1 (expressed in E. coli and purified in house), complexed with Eu-W1024-anti-6×His (“Eu”; PerkinElmer) in reaction buffer (50 mM Tris, 150 mM NaCl, 2 mM DTT, 0.1 mg/mL BSA, 0.01% (w/v) Tween-20, 5 mM MgCl2, pH 7.4) was combined with an equal volume of test compound in reaction buffer and incubated at 25° C. Concentrations at this stage were 1 nM TREX1/Eu complex, and four concentrations of compound (diluted from 10 mM stocks in 100% DMSO). At defined time points, 18 μL of this mixture was withdrawn and combined with 2 μL probe to a final concentration of 1 μM probe. After incubating for 30 seconds, 18 μL was withdrawn and combined with 2 μL streptavidin-allophycocyanin (“SA-APC”; PerkinElmer) to a final concentration of 1.5 μM SA-APC. Fifteen μL of this mixture was then immediately transferred to a 384-well Black ProxiPlate Plus (PerkinElmer) and read in an EnVision plate reader (PerkinElmer) measuring fluorescence at 615 nm and 665 nm following excitation w/337 nm laser light. Final concentrations were 0.8 nM TREX1/Eu complex, 0.9 μM probe, and 1.5 μM SA-APC.
N-terminally His-Tev tagged full length human TREX1 (expressed in E. coli and purified in house), complexed with Eu-W1024-anti-6×His (“Eu”; PerkinElmer) in reaction buffer (50 mM Tris, 150 mM NaCl, 2 mM DTT, 0.1 mg/mL BSA, 0.01% (w/v) Tween-20, 5 mM MgCl2, pH 7.4) was combined with an equal volume of test compound in reaction buffer. Concentrations at this stage were 100 nM TREX1/Eu complex and 100 nM test compound (diluted from 10 mM stocks in 100% DMSO). Following an equilibration period of at least an hour at 25° C., this mixture was diluted 100-fold into reaction buffer containing 1 μM probe, and incubated at 25° C. At defined time points, 36 μL of the reaction mixture was withdrawn and combined with 4 μL streptavidin-allophycocyanin (“SA-APC”; PerkinElmer) to a final concentration of 1.5 μM SA-APC. Fifteen μL of this mixture was then immediately transferred to duplicate wells of a 384-well Black ProxiPlate Plus (PerkinElmer) and read in an EnVision plate reader (PerkinElmer) measuring fluorescence at 615 nm and 665 nm following excitation w/337 nm laser light.
The TR-FRET signal, a ratio of 665 nm/615 nm emitted light, was converted to fraction enzyme bound to test compound by normalizing to low signal (no enzyme or test compound) and high signal (no test compound) controls. Data from both association and dissociation experiments were fitted globally using Kintek Explorer software, which computes the rate constants directly.

The term pIC50 denotes the negative decadic logarithm of the IC50, by convention in mol/L. A low value points to a large IC50. The residence time is how long the partners stay bound on average. For orientation: koff means the first-order rate constant of dissociation. As to `Cc1nc(C)c(C(c2ccccc2C#N)C(C)c2nc(C(=O)Nc3cnoc3)c(O)c(=O)n2C)nc1C` (single isomer, unassigned) [Example 122 D1E1], the negative-log IC50 (pIC50) against hTREX1 is more than 8.00. At full length human TREX1, this molecule gave a residence time of 1450 min and an off-rate constant (koff) of 1.15e-05 s⁻¹.
What is called pKd is −log10 of the Kd, conventionally taken in molar units. In general, kon refers to the rate constant with which the complex forms. A high value points to faster complex formation. In the case of `CCn1cc(C(c2ccccc2C#N)C(C)c2nc(C(=O)Nc3cnoc3)c(O)c(=O)n2C)cn1` (single isomer, unassigned) [Example 13 D1E1], on hTREX1, the negative logarithm of the IC50 (pIC50) was more than 8.00. Moreover, at full length human TREX1, the negative logarithm of the Kd (pKd) was 9.68, the residence time is 370 min, the dissociation rate constant (koff) was 4.5e-05 s⁻¹ and the kon was 215000 M⁻¹ s⁻¹.
Turning to `Cc1cnc(C(c2cc(F)ccc2C#N)C(C)c2nc(C(=O)Nc3cnoc3)c(O)c(=O)n2C)cn1` (single isomer, unassigned) [Example 115 D1E2], the negative-log IC50 (pIC50) on hTREX1 was more than 8.00. Further, on full length human TREX1, the residence time came out at 515 min and the koff was 3.23e-05 s⁻¹.
On to `CC(c1nc(C(=O)Nc2cnoc2)c(O)c(=O)n1C)C(c1cnn(C(C)C)c1)c1ccccc1C#N` (single isomer, unassigned) [Example 105 D1E2], for which the pIC50 on hTREX1 was more than 8.00. At full length human TREX1, this molecule showed a residence time of 662 min and a dissociation rate constant (koff) of 2.52e-05 s⁻¹.
As to `CCn1cc(C(c2ccc(F)cc2C#N)C(C)c2nc(C(=O)Nc3cnoc3)c(O)c(=O)n2C)cn1` (single isomer, unassigned) [Example 16 D1E1], the pIC50 against hTREX1 is more than 8.00. Besides, at full length human TREX1, the pKd was 9.61, the residence time is 461 min, the koff is 3.62e-05 s⁻¹ and the on-rate constant (kon) is 147000 M⁻¹ s⁻¹.
Molecule `CCn1cc(C(c2cc(F)ccc2C#N)C(C)c2nc(C(=O)Nc3cnoc3)c(O)c(=O)n2C)cn1` (single isomer, unassigned) [Example 17 D1E2] gave a pIC50 on hTREX1 of more than 8.00. Besides, at full length human TREX1, the pKd is 9.55, the residence time was 353 min, the koff was 4.72e-05 s⁻¹ and the kon is 168000 M⁻¹ s⁻¹.
`Cc1ncc(C(c2ccccc2Cl)C(C)c2nc(C(=O)Nc3cnoc3)c(O)c(=O)n2C)nc1C` (single isomer, unassigned) [Example 125 D1E2] showed a negative-log IC50 (pIC50) against hTREX1 of more than 8.00. On full length human TREX1, this molecule gave a residence time of 543 min and an off-rate constant (koff) of 3.07e-05 s⁻¹.
For `CCn1c(C(C)C(c2cnn(C)c2)c2ccccc2C#N)nc(C(=O)Nc2cnoc2)c(O)c1=O` (single isomer, unassigned) [Example 149 D1E2] the same measures were 7.00 to 8.00, 505 min and 3.3e-05 s⁻¹.
For `C[C@H](c1nc(C(=O)Nc2cnoc2)c(O)c(=O)n1C)[C@@H](c1cc(F)ccc1C#N)c1cn(C)nc1C#N` [Example 59 D1E2] the same measures were more than 8.00, 515 min and 3.23e-05 s⁻¹.
As for `Cc1nn(C)cc1C(c1cc(F)ccc1C#N)C(C)c1nc(C(=O)Nc2cnoc2)c(O)c(=O)n1C` (single isomer, unassigned) [Example 57 D1E2], at hTREX1, the pIC50 is more than 8.00. At full length human TREX1, the residence time amounted to 431 min and the koff is 3.87e-05 s⁻¹.
Take `CC(c1nc(C(=O)Nc2cnoc2)c(O)c(=O)n1C)C(c1cnn(C)c1)c1ccccc1C#N` (single isomer, unassigned) [Example 2 D1E1]: at hTREX1, the pIC50 is more than 8.00. For the same molecule, at full length human TREX1, the pKd was 9.64, the residence time amounted to 368 min, the koff is 4.53e-05 s⁻¹ and the kon was 197000 M⁻¹ s⁻¹.
For `CC(c1nc(C(=O)Nc2cnoc2)c(O)c(=O)n1C)C(c1cnn(C)c1)c1cc(Cl)ccc1C#N` (single isomer, unassigned) [Example 26 D1E2], the negative logarithm of the IC50 (pIC50) at hTREX1 was 7.00 to 8.00. At full length human TREX1, this molecule gave a pKd of 9.39, a residence time of 269 min, a koff of 6.2e-05 s⁻¹ and a kon of 153000 M⁻¹ s⁻¹.
Regarding `CC(c1nc(C(=O)Nc2cnoc2)c(O)c(=O)n1C)C(c1cnn(C(F)F)c1)c1ccccc1C#N` (single isomer, unassigned) [Example 38 D1E1], at hTREX1, the negative logarithm of the IC50 (pIC50) is more than 8.00. On full length human TREX1, this molecule gave a negative logarithm of the Kd (pKd) of 9.45, a residence time of 290 min, a koff of 5.73e-05 s⁻¹ and an association rate constant (kon) of 163000 M⁻¹ s⁻¹.
